Test results as given in patent US20160297829A1, “METHOD FOR PRODUCING AVENACIOLIDES AND USES THEREOF” (Academia Sinica, priority 2015, published 2016).
In brackets after ≈: the same amount, converted by molar mass. Several values for one entry are separate records, joined by “and”; a condition that tells them apart may be missing. Equal entries are not always repeated. Where two headings read alike, the source gives them in different places.

What was measured:
A. baumannii = experiment: Transmission Electron Microscopy (TEM) of treated bacteria; assay type: cell-based, Acinetobacter baumannii
Procedure: (§1) FIG. 1 are TEM photographs of MRSA (a-f) and A. baumannii (g-l) after being treated with the compounds of example 2 (128 μM) and fosfomycin (64 μM), in which (a) and (g) are un-treated S. aureus and A. baumannii; (b) and […] are those treated with the compound 10d, while (c) and (i) are treated with the compound of 13d; (d) and (j) are treated with the compound 14; (e) and (k) are treated with the compound 15; (f) and […] are treated with fosfomycin, in which CW, CM, IM, and OM respectively denote cell walls, cell membranes, inner membranes, and outer membranes; and
(§2) Transmission Electron Microscopy (TEM)
(§3) Exponential phase bacteria were treated with compounds at 4×MIC for 1 hr at 37° C. Then, the cells were washed and fixed and cut into thin slices and photographed using a Thin-layer TEM.

E. coli ATCC 25922 = experiment: Minimum Inhibition Concentration (MIC) assay; assay type: cell-based, Escherichia Coli
Excerpt: (§4) Various strains of microorganisms were used in the present disclosure, including Acinetobacter baumannii (ATCO 17978), Staphylococcus aureus (ATCO 29213), methicillin-resistant Staphylococcus aureus (MRSA) (ATCO 33592), Bacillus subtilis (ATCO 23857), and Escherichia Coli (ATCO 25922), which were purchased from American Type Culture Collection (ATCO), and cultured in Mueller-Hinton (MH) II agar plates or in MH broth.
(§5) Minimum Inhibition Concentration (MIC) Assay
(§6) MIC assay is a standardized assay performed in accordance with the guidelines issued by Clinical and Laboratory Standard Institute (CLSI) that measures the ability of certain agent and/or a surface in inhibiting the growth of a microorganism or killing the microorganism after being in contact with that microorganism for 24 hrs. Accordingly, MIC is the lowest concentration of an anti-bacterial agent and/or a surface that will inhibit the visible growth of a microorganism after overnight culture.
(§7) In practice, microorganisms grown on the agar plates were re-suspended in phosphate-buffered saline (PBS) to an OD 600 of 0.1. Suitable amount of this suspension was added to the appropriate broth media at a final concentration of 5×10^5 colony-forming units (CFU)/mL. Then, 98 μL of the broth+cell solution for each strain was added to each well of 96-well assay plate. Solutions of the present compounds were freshly prepared in DMSO and then serial diluted in 2-fold steps in DMSO, resulting in a final concentrations of 0.004-256 μg/mL when diluted 1:50 in test broth. The initial inoculum for each strain was serially diluted in PBS and plated on appropriate agar plate media to ensure that the assay contained the desired number of CFU. MIC assay plates were incubated overnight at 37° C. under aerobic conditions.

MRSA = experiment: Transmission Electron Microscopy (TEM) of treated bacteria; assay type: cell-based, methicillin-resistant Staphylococcus aureus (MRSA)
Procedure: as §1, §2, §3

[1] = test system: gram-positive bacteria, including MRSA; experiment: Growth inhibition (MIC), summary over strains; assay type: cell-based; settings: for MIC: Staphylococcus aureus, MRSA, text summary for compounds 10d and 13d over gram-positive strains; for anti-bacteria activity: statement in words
Excerpt: as §5, §6, §7
In this example, the inhibitory effect of the isolated avenaciolide derivatives of example 2 (i.e., compounds 10d, 13d, 14, and 15) on the growth of gram-positive bacteria, including MRSA, were tested; and the results are summarized in Table 1.

[2] = test system: S. aureus ATCC 33592 (MRSA strain); experiment: Minimum Inhibition Concentration (MIC) assay; assay type: cell-based, methicillin-resistant Staphylococcus aureus (MRSA); settings: Staphylococcus aureus, overnight at 37° C.
Excerpt: as §4, §5, §6, §7

MRSA MurA^C119D = target: T1, MRSA MurA^C119D (Staphylococcus aureus, UniProt Q5HEA0, C119D); experiment: MuraA assay (malachite green); assay type: biochemical, methicillin-resistant Staphylococcus aureus (MRSA); settings: for IC50, MurA activity: MRSA MurA C119D mutant (fosfomycin resistant), 5 replicates
T1 sequence (Q5HEA0 1-421 C119D): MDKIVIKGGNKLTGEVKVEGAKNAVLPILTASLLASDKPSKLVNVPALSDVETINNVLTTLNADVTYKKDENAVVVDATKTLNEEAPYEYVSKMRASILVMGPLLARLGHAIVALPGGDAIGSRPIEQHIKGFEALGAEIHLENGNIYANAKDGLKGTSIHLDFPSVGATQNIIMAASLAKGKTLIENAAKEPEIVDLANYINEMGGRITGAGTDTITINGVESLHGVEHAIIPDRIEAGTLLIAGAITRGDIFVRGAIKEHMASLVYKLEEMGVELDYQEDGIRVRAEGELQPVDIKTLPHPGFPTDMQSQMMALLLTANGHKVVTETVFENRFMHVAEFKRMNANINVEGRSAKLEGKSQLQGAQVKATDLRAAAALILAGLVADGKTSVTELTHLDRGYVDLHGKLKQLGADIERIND
Procedure: (§8) In a standardized assay, MuraA enzymes were pre-incubated with the substrate UNAG and an inhibitor for 10 min at 37° C. To determine the influence of UNAG on the binding process, experiments were performed in the absence of UNAG during pre-incubation period. The reaction was initiated by the addition of the second substrate PEP, resulting in a total volume of […] with the following concentrations: E. Coli MurA or MRSA MurA 25 nM, UNAG 310 μM, PEP 620 μM, 50 mM HEPES, pH 7.6, DMSO 1% (v/v). The reaction was stopped after 60 min at 37° C. by adding 100 μL of Lanzetta reagent containing malachite green solution (0.045% (w/v)) and ammonium heptamolybdate (8.4% (v/v)) at a ratio of 3:1 and with 0.03% (w/v) Tergitol NP-40 as dye-stabilizing detergent. After 10 min, the absorbance at 620 nm was measured using a FlexStation 3 Microplate Reader (Molecular Devices). Finally, dose-response curves were generated by measuring the enzyme activity of five replicates at least 8 different compound concentrations. The resulting data were plotted and IC50 values indicating the concentration of the compound with a residual activity of 50% were determined.
(§9) Various types of MuraA enzymes, including those from E. Coli, wild type MRSA^WT, and MRSA^C119D mutant strain, were treated with any of the compounds 10d, 13d, or 14, as well as fosfomycin, in which MRSA^WT represents wild type MurA, and MRSA^C119D mutant strain represents MRSA strain in which the 119th amino acid residue, cysteine (C), is replaced by aspartic acid (D).

MRSA MurA^WT = MRSA MurA^WT (Staphylococcus aureus, UniProt Q5HEA0); experiment: MuraA assay (malachite green); assay type: biochemical, methicillin-resistant Staphylococcus aureus (MRSA); settings: IC50, MurA activity, MRSA MurA wild type 25 nM, UNAG 310 μM, PEP 620 μM, pH 7.6; 5 replicates
Procedure: as §8, §9

B. subtilis ATCC 23857 = experiment: Minimum Inhibition Concentration (MIC) assay; assay type: cell-based; settings: Bacillus subtilis, ATCC23857
Excerpt: as §4, §5, §6, §7

S. aureus ATCC 29213 = experiment: Minimum Inhibition Concentration (MIC) assay; assay type: cell-based; settings: Staphylococcus aureus, ATCC29213, overnight at 37° C.
Excerpt: as §4, §5, §6, §7

A. baumannii 17978 = experiment: Minimum Inhibition Concentration (MIC) assay; assay type: cell-based, Acinetobacter baumannii
Excerpt: as §4, §5, §6, §7

E coli MurA = E coli MurA (Escherichia coli, UniProt P0A749); experiment: biochemical; settings: IC50, MurA activity, E coli MurA 25 nM, UNAG 310 μM, PEP 620 μM, pH 7.6; 5 replicates
Procedure: as §8, §9

[3] = test system: Mice macrophage cell line RAW 264.2; experiment: AlamaBlue cell viability assay; assay type: cell-based; settings: 24 hrs
Procedure: Mice macrophage cell line RAW 264.2 was used in the present disclosure. RAW 264.2 cells were cultured in RPMI 1640 medium supplemented with 10% fetal calf serum (FCS) and maintained in an environment of 5% CO2/95% air at 37° C.
AlamaBlue Cell Viability Assay
The alamarBlue cell viability assay uses a non-toxic, water-soluble resazurin dye that yields a fluorescent signal and a colorimetric change when incubated with metabolically active cells. The assay is based on the findings that metabolically active cells (or viable cells) may keep the culture medium in a reduced state, whereas the non-viable cells will turn the culture medium into an oxidized state, thereby rendering the redox indicator in the medium (i.e., resazurin dye) to convert from its non-fluorescent oxidized form (blue color) to its fluorescent reduced form (pink color). Thus, the cell viability may be monitored by the fluorescent signal changes at 590 nm.
Cells were plated in 96-well plates at a density of 5,000 cells/100 μL/well for 24 hrs, then 10 μL AlamarBlue™ reagent (AbD Serotee Ltd., Oxford, UK) and various concentrations (i.e., 12.5, 25, 50 or 100 μM) of the test compound (e.g., the compound of example 2) were added, and incubated for 24 hrs. The plates were then placed at a fluorescence reader and fluorescent signals at 590 nm were measured.
In general, mice macrophages were treated with various concentrations of the compounds of example 2 for 24 hrs, the viability of cells were then analyzed by fluorescence analysis in accordance with procedures described in “Materials and Methods” section.

[4] = 128 μg/mL (FIG. 1 legend: 128 μM), treated for an hr
[5] = Escherichia coli, ATCC25922, overnight at 37° C., read-out: MIC
[6] = B. subtilis ATCC 23857, overnight at 37° C., read-out: MIC
[7] = 17978, Acinetobacter baumannii, read-out: MIC for gram-negative bacteria
[8] = Acinetobacter baumannii, A. baumannii 17978, overnight at 37° C., read-out: MIC
[9] = 12.5 or 25 μM, fluorescence 590 nm
[10] = 50 or 100 μM, fluorescence 590 nm
[11] = fosfomycin 64 μg/mL, positive control

Chain of E coli MurA (P0A749 whole entry): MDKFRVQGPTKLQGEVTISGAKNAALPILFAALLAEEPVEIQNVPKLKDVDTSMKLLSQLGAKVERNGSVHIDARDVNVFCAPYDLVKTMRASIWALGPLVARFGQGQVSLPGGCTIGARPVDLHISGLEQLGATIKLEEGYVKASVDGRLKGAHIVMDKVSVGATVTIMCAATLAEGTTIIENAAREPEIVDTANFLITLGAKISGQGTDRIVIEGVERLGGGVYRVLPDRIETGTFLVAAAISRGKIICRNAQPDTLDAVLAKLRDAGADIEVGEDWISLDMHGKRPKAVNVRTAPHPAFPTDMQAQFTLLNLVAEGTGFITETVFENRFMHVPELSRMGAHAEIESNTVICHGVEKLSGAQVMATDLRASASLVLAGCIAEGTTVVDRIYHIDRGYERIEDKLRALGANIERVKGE

SMILES	cell wall structure in TEM photographs (A. baumannii; [4])	MIC (E. coli ATCC 25922; [5]) [µg/mL]	cell wall structure in TEM photographs (MRSA; [4])	MIC [1] [µg/mL]	MIC [2] [µg/mL]	IC50 (MRSA MurA^C119D) [µM]	IC50 (MRSA MurA^WT)	MIC (B. subtilis ATCC 23857; [6]) [µg/mL]	MIC (S. aureus ATCC 29213) [µg/mL]	MIC (A. baumannii 17978; [7]) [µg/mL]	MIC (A. baumannii 17978; [8]) [µg/mL]	IC50 (E coli MurA)	growth (viability) of macrophages [3, 9]	growth (viability) of macrophages [3, 10]	anti-bacteria activity [1]	IC50, MurA activity (MRSA MurA^C119D)	further results
C=C1C(=O)O[C@H]2C(=O)O[C@H](CCCCCCCC)[C@@H]12 [Compound 10d]	not affected	128 (≈ 481 µM)	ruptured	16 to 32 (≈ 60.1 to 120 µM)	32 (≈ 120 µM)	21.5	8.3 µM	64 (≈ 240 µM)	16 (≈ 60.1 µM)	256 (≈ 961 µM)	256 (≈ 961 µM)	0.9 to 10.8 µM and 0.9 µM	slightly affected	significant growth inhibition	–	–	–
C=C(C(=O)OC)[C@@H]1[C@@H](CCCCCCCC)OC(=O)[C@@H]1O [Compound 13d]	not affected	128 (≈ 429 µM)	ruptured	16 to 32 (≈ 53.6 to 107 µM)	16 (≈ 53.6 µM)	7.9	6.7 µM	32 (≈ 107 µM)	32 (≈ 107 µM)	256 (≈ 858 µM)	256 (≈ 858 µM)	0.9 to 10.8 µM and 2.8 µM	slightly affected	significant growth inhibition	–	–	–
C=C(C(=O)O)[C@@H]1[C@@H](CCCCCCCC)OC(=O)[C@@H]1O [Compound 14]	completely unaffected	–	slightly affected	–	256 (≈ 900 µM)	–	~71 µM and 71 µM	256 (≈ 900 µM)	256 (≈ 900 µM)	–	–	0.9 to 10.8 µM and 10.8 µM	slightly affected	significant growth inhibition	neither compound 14, nor compound 15 possessed any anti-bacteria activity	in-effective and No	MIC (E. coli ATCC 25922; overnight at 37° C.): no; MIC (A. baumannii 17978; A. baumannii 17978, overnight at 37° C.): no
CCCCCCCC[C@H]1OC(=O)[C@@H]2OC(=O)[C@@H](C)[C@H]12 [Compound 15]	neither MRSA nor A. baumannii was affected	–	neither MRSA nor A. baumannii was affected	–	–	–	–	–	–	–	–	–	–	–	neither compound 14, nor compound 15 possessed any anti-bacteria activity	–	growth (viability) of macrophages ([3]; various concentrations (12.5, 25, 50 or 100 μM)): completely un-affected
C[C@@H]1O[C@@H]1P(=O)(O)O [fosfomycin, reference compound]	–	64 (≈ 464 µM)	–	–	64 (≈ 464 µM)	–	1.6 µM	–	4 (≈ 29 µM)	–	–	0.4 µM	–	–	–	failed to suppress and No	cell wall structure in TEM photographs (A. baumannii; [11]): ruptured; cell wall structure in TEM photographs (MRSA; [11]): ruptured; MIC (B. subtilis ATCC 23857): 128 µg/mL (≈ 927 µM); MIC (A. baumannii 17978; Acinetobacter baumannii, 17978): 256 µg/mL (≈ 1850 µM)
